Experimental findings from US20170283440A1, “CARM1 INHIBITORS AND USES THEREOF” (Epizyme, Inc., priority 2014, published 2017) are described below.

One experiment deals with T1, Human CARM1 (PRMT4) (Homo sapiens, UniProt Q86X55).
T1 construct: Flag-CARM1-His was eluted with 200 ug/ml FLAG peptide in buffer A; made in house; host or cells: HEK 293F cells infected with recombinant baculovirus (pFastBacMam)
The experiment in a line: CARM1 enzyme assay on peptide substrate (3H-SAM Flashplate). Format: biochemical. Conditions: CARM1 0.25 nM, 3H-SAM 30 nM, peptide 250 nM; read-out: Biochem IC50. A digest of the protocol: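 Flag-CARM1-His (isoform 1, Δ539-561; HEK293F-expressed), 0.25 nM, preincubated 30 min RT with compound, then 30 nM 3H-SAM and 250 nM biotinylated H3(16-30) R26me1 peptide in pH 7.6 Bicine buffer, 2% DMSO. Stopped with 300 uM cold SAM; streptavidin Flashplate capture, cpm. % inhibition vs DMSO/1 mM SAH, 3- or 4-parameter fit.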

Experiment [1] concerns asymmetric di-methyl PABP1 in RKO cells. The experiment in a line: RKO methylation assay (In Cell Western for asymmetric di-methyl PABP1). Format: cell-based. Conditions: Homo sapiens, 48 hours incubation, read-out: Cellular IC50. A digest of the protocol: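 RKO cells treated 48 h at 37 °C, then fixed, methanol-permeabilized and probed for asymmetric di-methyl PABP1 (16 h, 4 °C) with DRAQ5 counterstain; 800/700 nm intensity ratio read.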

Each structure is given as a SMILES string.

T1 sequence (Q86X55 other isoform, or with tags, fused parts or gaps): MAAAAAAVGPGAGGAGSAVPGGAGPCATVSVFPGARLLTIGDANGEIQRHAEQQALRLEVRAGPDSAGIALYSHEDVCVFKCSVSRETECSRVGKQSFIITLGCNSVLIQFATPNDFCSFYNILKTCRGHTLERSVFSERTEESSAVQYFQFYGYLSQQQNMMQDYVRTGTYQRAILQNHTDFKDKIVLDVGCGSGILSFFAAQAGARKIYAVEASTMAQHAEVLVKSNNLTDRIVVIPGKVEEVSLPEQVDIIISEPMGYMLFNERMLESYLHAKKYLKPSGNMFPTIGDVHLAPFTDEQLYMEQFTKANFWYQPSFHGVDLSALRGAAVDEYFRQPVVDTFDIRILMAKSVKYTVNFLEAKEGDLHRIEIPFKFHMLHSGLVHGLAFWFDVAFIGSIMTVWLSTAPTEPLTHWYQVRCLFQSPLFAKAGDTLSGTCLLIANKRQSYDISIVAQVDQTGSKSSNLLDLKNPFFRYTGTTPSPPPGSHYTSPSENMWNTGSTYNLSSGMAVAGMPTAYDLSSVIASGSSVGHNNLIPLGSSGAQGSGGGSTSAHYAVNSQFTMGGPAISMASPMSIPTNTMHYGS

For the compound `CNCC(O)COc1cc(OC)cc(-c2cc(N3CCOCC3)n3ncc(C(=O)OC)c3n2)c1` (centres unmarked) [Example 17-8], the IC50 is less than 100 nM on Human CARM1 (PRMT4) and 10000 to 20000 nM in experiment [1].
In the same order, the values of `CNCC(O)COc1cccc(-c2nc(NCc3cccnc3)c3cnn(C4CC4)c3n2)c1` (centres unmarked) [Example 17-9] are 100 to 1000 nM and more than 20000 nM.
The matching figures for `NCC(O)COc1cccc(-c2nc(NCc3nccs3)c3cnn(C4CC4)c3n2)c1` (centres unmarked) [Example 18-5]: less than 100 nM and more than 20000 nM.
In the same order, the values of `CNCC(O)COc1cc(NC)cc(-c2cc(N(C)C3CCOCC3)c3cnn(C(C)C)c3n2)c1` (centres unmarked) [Example 19-4] are less than 100 nM and 5000 to 10000 nM.
In the case of `CNCC(O)COc1cccc(-c2nc(NC3CCOCC3)c3cnn(C4CC4)c3n2)c1` (centres unmarked) [Example 19-5], the IC50 on Human CARM1 (PRMT4) is 100 to 1000 nM; in experiment [1], more than 20000 nM.
For the compound `CNCC(O)COc1cccc(-c2cc(NC3CCOCC3)n3ncc(C(C)(C)C)c3n2)c1` (centres unmarked) [Example 19-6], the results for the IC50 (on Human CARM1 (PRMT4); in experiment [1]) were less than 100 nM and more than 20000 nM, respectively.
The matching figures for `CNCC(O)COc1cccc(-c2nc(NCc3cc(C)on3)c3cnn(C4CC4)c3n2)c1` (centres unmarked) [Example 19-9]: 100 to 1000 nM and more than 20000 nM.
In the same order, the values of `CNCC(O)COc1cc(OC)cc(-c2cc(NC3CCOCC3)c3c(C)nn(C(C)C)c3n2)c1` (centres unmarked) [Example 20-4] are less than 100 nM and 10000 to 20000 nM.
The matching figures for `CNCC(O)COc1cccc(-c2nc(N3CCOCC3)c3cnn(C(C)(C)C)c3n2)c1` (centres unmarked) [Example 20-5]: less than 100 nM and more than 20000 nM.
For the compound `CCc1cc(OCC(O)CNC)cc(-c2cc(N3CCOCC3)n3ncc(C(C)C)c3n2)c1` (centres unmarked) [Example 20-6], the IC50 was 100 to 1000 nM at Human CARM1 (PRMT4) and more than 20000 nM in experiment [1].
The matching figures for `CNCC(O)COc1cccc(-c2cc(N3CCOC3=O)n3ncc(C(C)C)c3n2)c1` (centres unmarked) [Example 20-9]: 100 to 1000 nM and more than 20000 nM.
In the same order, the values of `CNCC(O)COc1cc(OC(C)C)cc(-c2cc(N3CCOCC3)c3cnn(C(C)C)c3n2)c1` (centres unmarked) [Example 21-4] are less than 100 nM and more than 20000 nM.
In the same order, the values of `CNCC(O)COc1cccc(-c2nc(NCc3ccncc3)c3cnn(C4CC4)c3n2)c1` (centres unmarked) [Example 21-5] are 100 to 1000 nM and more than 20000 nM.
With `CNCC(O)COc1cc(NC)cc(-c2cc(N3CCOCC3)n3ncc(C(C)C)c3n2)c1` (centres unmarked) [Example 21-6], the values for the IC50 (at Human CARM1 (PRMT4); in experiment [1]) were less than 100 nM and more than 20000 nM, respectively.
In the same order, the values of `CC(C)n1ncc2c(N3CCOCC3)cc(-c3cccc(SCC(O)CN)c3)nc21` (centres unmarked) [Example 21-9] are 100 to 1000 nM and more than 20000 nM.
In the same order, the values of `CNCC(O)COc1cc(Cl)cc(-c2cc(NC3CCOCC3)c3c(C)nn(C(C)C)c3n2)c1` (centres unmarked) [Example 22-4] are less than 100 nM and 5000 to 10000 nM.
In the same order, the values of `CNCC(O)COc1cccc(-c2nc(NCc3ccccn3)c3cnn(C4CC4)c3n2)c1` (centres unmarked) [Example 22-5] are 100 to 1000 nM and more than 20000 nM.
Take `CNCC(O)COc1cc(OC)cc(-c2cc(N3CCOCC3)n3ncc(C(C)C)c3n2)c1` (centres unmarked) [Example 22-6]: the IC50 on Human CARM1 (PRMT4) is less than 100 nM; in experiment [1], more than 20000 nM.
The matching figures for `CNCC(O)COc1cc(OC)cc(-c2cc(N[C@H]3CCOC3)n3ncc(C(C)C)c3n2)c1` (some centres unmarked) [Example 23-6]: less than 100 nM and more than 20000 nM.
The matching figures for `CNCC(O)COc1cc(CO)cc(-c2cc(NC3CCOCC3)c3cnn(C(C)C)c3n2)c1` (centres unmarked) [Example 23-9]: 100 to 1000 nM and more than 20000 nM.
`CC(C)n1ncc2c(N3CCOCC3)cc(-c3cc(OCC(O)CN)cc(OC(F)(F)F)c3)nc21` (centres unmarked) [Example 24-4]: the IC50 was 100 to 1000 nM at Human CARM1 (PRMT4) and more than 20000 nM in experiment [1].
Consider `Cc1cc(CNc2nc(-c3cccc(OCC(O)CN)c3)nc3c2cnn3C2CC2)n(C)n1` (centres unmarked) [Example 24-5], for which the IC50 is less than 100 nM at Human CARM1 (PRMT4) and more than 20000 nM in experiment [1].

The term IC50 denotes the point on the concentration scale where inhibition reaches its midpoint.
